{"source": "patent US7655784B2", "about": "“Trans-sialidases obtained from Trypanosoma congolense” (N.V. Nutricia, priority 2002, dated 2010)", "key": {"trans-sialidase TS1": {"system": "trans-sialidase TS1", "test": "Trans-sialidase transfer activity of TS1 in the presence of salts, metal ions and putative inhibitors", "format": "biochemical, Trypanosoma congolense", "conditions": "for Salt effect: reduction of enzyme activity: 1M salt, de-salting produces enzyme activity again; for Effect of putative inhibitors: 10 mM", "method": "(§1) In order to determine the transfer activity of the trans-sialidase, 25 μl enzyme solution in 50 mM BisTris buffer, pH7.0, are incubated together with 1 mM NeufAc-α(2-3) lactose as a donor and 0.5 mM 4-methylumbelliferyl galactoside as an acceptor in a final volume of 50 μl at 37° C. for 2 hrs. The incubation is halted by adding 1 ml ice cold water. The reaction batch is then introduced to columns previously filled with 0.3 ml Q Sepharose FF (acetate form) and pre-equilibrated with water. After having washed out the acceptor with water and having discarded the dead volume (200 μl 1N HCl), the sialated product is eluated with 1N HCl (700 μl). Following acid hydrolysis of the product at 95° C. for 45 mins and cooling on ice, the probe is neutralised with 250-290 μl 2 N NaOH and 300 μl 1M glycin/NaOH buffer pH 10.0. The fluorescence of the released methylumbelliferone is measured in black 96 well plates (Microfluor, Dynex, U.S.A.) with a stimulation wave length of 365 nm and an emission wave length of 450 nm. The activity of the enzyme corresponds to the intensity of the fluorescence measured and can be read off on a previously established calibration curve (method in accordance with Engstler et al. 1992)."}, "trans-sialidase TS2": {"system": "trans-sialidase TS2", "test": "Trans-sialidase transfer activity of TS2 in the presence of salts, metal ions and putative inhibitors", "format": "biochemical, Trypanosoma congolense", "conditions": "for Salt effect: reduction of enzyme activity: 1M salt, de-salting produces enzyme activity again; for Effect of putative inhibitors: 10 mM", "method": "as §1"}}, "data": [{"molecule": "[Mg+2]", "note": "[Mg^2+]", "values": [{"measurement": "Effect of metal ions", "setting": "trans-sialidase TS1; 20 mM", "value": "20 mM Ca^2+, Mg^2+, Mn^2+: no effect 5 mM"}, {"measurement": "Effect of metal ions", "setting": "trans-sialidase TS2; 20 mM", "value": "20 mM Ca^2+, Mg^2+, Mn^2+: no effect 5 mM"}]}, {"molecule": "[Cl-].[K+]", "note": "[KCl]", "values": [{"measurement": "Salt effect: reduction of enzyme activity", "setting": "trans-sialidase TS1", "value": "enzymes by 50%, de-salting produces enzyme"}, {"measurement": "Salt effect: reduction of enzyme activity", "setting": "trans-sialidase TS2", "value": "enzymes by 50%, de-salting produces enzyme"}]}, {"molecule": "CC(=O)N[C@H]1[C@H]([C@H](O)[C@H](O)CO)OC(C(=O)O)=C[C@@H]1O", "note": "[N-acetyl-2,3-didehydro-2-deoxyneuraminic acid, reference compound]", "values": [{"measurement": "Effect of putative inhibitors", "setting": "trans-sialidase TS1", "value": "acid: little inhibition."}, {"measurement": "Effect of putative inhibitors", "setting": "trans-sialidase TS2", "value": "acid: little inhibition."}]}, {"molecule": "[Zn+2]", "note": "[Zn^2+]", "values": [{"measurement": "Effect of metal ions", "setting": "trans-sialidase TS1; 5 mM", "value": "Cu^2+, Zn^2+, Fe^2+, Co^2+: little effect"}, {"measurement": "Effect of metal ions", "setting": "trans-sialidase TS2; 5 mM", "value": "Cu^2+, Zn^2+, Fe^2+, Co^2+: little effect"}]}, {"molecule": "[Mn+2]", "note": "[Mn^2+]", "values": [{"measurement": "Effect of metal ions", "setting": "trans-sialidase TS1; 20 mM", "value": "20 mM Ca^2+, Mg^2+, Mn^2+: no effect 5 mM"}, {"measurement": "Effect of metal ions", "setting": "trans-sialidase TS2; 20 mM", "value": "20 mM Ca^2+, Mg^2+, Mn^2+: no effect 5 mM"}]}, {"molecule": "[Co+2]", "note": "[Co^2+]", "values": [{"measurement": "Effect of metal ions", "setting": "trans-sialidase TS1; 5 mM", "value": "Cu^2+, Zn^2+, Fe^2+, Co^2+: little effect"}, {"measurement": "Effect of metal ions", "setting": "trans-sialidase TS2; 5 mM", "value": "Cu^2+, Zn^2+, Fe^2+, Co^2+: little effect"}]}, {"molecule": "[Cu+2]", "note": "[Cu^2+]", "values": [{"measurement": "Effect of metal ions", "setting": "trans-sialidase TS1; 5 mM", "value": "Cu^2+, Zn^2+, Fe^2+, Co^2+: little effect"}, {"measurement": "Effect of metal ions", "setting": "trans-sialidase TS2; 5 mM", "value": "Cu^2+, Zn^2+, Fe^2+, Co^2+: little effect"}]}, {"molecule": "O=C(O)C(=O)Nc1ccc([N+](=O)[O-])cc1", "note": "[N-(4-nitrophenyl)oxamic acid, reference compound]", "values": [{"measurement": "Effect of putative inhibitors", "setting": "trans-sialidase TS1", "value": "10 mM N-(4-nitrophenyl)oxamic acid: little"}, {"measurement": "Effect of putative inhibitors", "setting": "trans-sialidase TS2", "value": "10 mM N-(4-nitrophenyl)oxamic acid: little"}]}, {"molecule": "[Cl-].[Na+]", "note": "[NaCl]", "values": [{"measurement": "Salt effect: reduction of enzyme activity", "setting": "trans-sialidase TS1", "value": "enzymes by 50%, de-salting produces enzyme"}, {"measurement": "Salt effect: reduction of enzyme activity", "setting": "trans-sialidase TS2", "value": "enzymes by 50%, de-salting produces enzyme"}]}, {"molecule": "[Fe+2]", "note": "[Fe^2+]", "values": [{"measurement": "Effect of metal ions", "setting": "trans-sialidase TS1; 5 mM", "value": "Cu^2+, Zn^2+, Fe^2+, Co^2+: little effect"}, {"measurement": "Effect of metal ions", "setting": "trans-sialidase TS2; 5 mM", "value": "Cu^2+, Zn^2+, Fe^2+, Co^2+: little effect"}]}, {"molecule": "[Ca+2]", "note": "[Ca^2+]", "values": [{"measurement": "Effect of metal ions", "setting": "trans-sialidase TS1; 20 mM", "value": "20 mM Ca^2+, Mg^2+, Mn^2+: no effect 5 mM"}, {"measurement": "Effect of metal ions", "setting": "trans-sialidase TS2; 20 mM", "value": "20 mM Ca^2+, Mg^2+, Mn^2+: no effect 5 mM"}]}]}
